# Data as given in patent US12595259B2, “Aminopyridine compound” (ZHUHAI UNITED LABORATORIES CO., LTD., priority 2020, dated 2026).
# Test: Experiment of aldehyde-trapping ability in vitro
# Conditions: for percentage content of the complex product (HPLC, 254 nm): nonanal 1.0 eq, compound 1.0 eq, 20 to 23° C.
# Protocol: Objective: xerophthalmia is caused by inflammations inside the eye, and these inflammations would produce some aldehydes in vivo. If these aldehydes are not eliminated in time, the symptoms of inflammations would be accelerated and worsen the xerophthalmia. In this experiment, by simulating the in vivo environment, a relatively preferred compound was selected according to the complexing ability of the drug and the aldehyde in vivo.
# Process: sulfobutyl-B-cyclodextrin (310 mg) was dissolved in phosphate buffer (1.25 mL) to prepare a solution.
# Nonanal (5.0 mg, 32 μmol, 1.0 eq) and glyceryl trioleate (300 mg) were added into a reaction flask at room temperature. After the above prepared solution was added thereto, linoleic acid (300 mg) was then added thereto, and finally a dimethyl sulfoxide (0.15 mL) solution containing the compound of the present disclosure (32 μmol, 1.0 eq) was added thereto. The reaction solution was reacted at 20 to 23° C.
# After stirring and reacting for 10 minutes, 100 minutes, 200 minutes, and 300 minutes, respectively, the reaction solution was allowed to stand for 2 minutes, layered and then sampled for high performance liquid detection.
# Sampling method: 25 μL of the upper emulsion layer and 50 μL of the lower aqueous phase were sampled with a pipette, and diluted with 1 mL of methanol.
# Nonanal has weak ultraviolet absorption at a wavelength of 254 nm, and has little influence on the content of complexation product as a whole. Therefore, the percentage content of the complexed compound at 254 nm in high performance liquid phase was compared to observe the ability of the compound to trap and complex aldehyde.
# The HPLC analysis method is shown in Table 1 below, which is XBRIGE 2.5 μm, 3.0*100 mm 5-95CD_XBEH_12 min_0.8.lcm
smiles,measurement,setting,value
CC(C)(O)c1ncc(-c2nc(C(C)(C)O)c(N)s2)cc1N [Compound 1],Area under the curve AUC,"complex product content against time, 10 to 300 minutes",1874 min. conversion rate
same,Slope,"linear fit of complex product content against time, 10 to 300 minutes",0.0394
same,"percentage content of the complex product (HPLC, 254 nm)",reaction time 10 minutes,1.095
same,"percentage content of the complex product (HPLC, 254 nm)",reaction time 100 minutes,4.751
same,"percentage content of the complex product (HPLC, 254 nm)",reaction time 200 minutes,8.764
same,"percentage content of the complex product (HPLC, 254 nm)",reaction time 300 minutes,12.496
